For 37 compounds, EC50, IC50 and AC50 results are on record in ChEMBL document CHEMBL1201862, “PubChem BioAssay data set” (2004).

Experiment [1] deals with T1, Heat shock factor protein 1 (Mus musculus, UniProt P38532).
T1 sequence (P38532 whole entry): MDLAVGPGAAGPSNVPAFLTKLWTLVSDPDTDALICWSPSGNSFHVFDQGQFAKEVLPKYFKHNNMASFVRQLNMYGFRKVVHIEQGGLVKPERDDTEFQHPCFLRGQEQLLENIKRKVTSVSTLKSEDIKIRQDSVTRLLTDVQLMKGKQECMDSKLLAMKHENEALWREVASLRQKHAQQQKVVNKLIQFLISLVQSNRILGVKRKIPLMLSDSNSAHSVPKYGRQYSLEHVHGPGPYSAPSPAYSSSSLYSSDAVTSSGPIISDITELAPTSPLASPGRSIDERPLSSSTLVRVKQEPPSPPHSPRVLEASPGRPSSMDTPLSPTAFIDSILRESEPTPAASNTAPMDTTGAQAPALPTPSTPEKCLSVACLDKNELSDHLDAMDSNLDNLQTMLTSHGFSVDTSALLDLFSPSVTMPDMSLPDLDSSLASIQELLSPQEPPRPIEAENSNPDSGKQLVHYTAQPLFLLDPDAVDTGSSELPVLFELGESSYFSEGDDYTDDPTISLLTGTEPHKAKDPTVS
The experiment can be described thus: enhancement of HSF1-driven luciferase signal – cell-based, NIH3T3, luminescence, dose retest, confirmation (AID 435004).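 Further: stress induced by proteasome inhibitor MG132 added 30 min after compound; luciferase reporter driven by HSF1 response element in NIH3T3 cells; actives raise luminescence as potentiators of the MG132 stress response.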 Type of experiment: functional.

Experiment [2] is described as follows: NIH-3T3 fibroblast cytotoxicity, dose response, cytotoxicity control, cell-based, fluorescence, Alamar Blue, secondary assay (AID 2327).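 Further: NIH-3T3 mouse fibroblasts cultured with fluconazole at 8 µg/mL.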 It counts as functional. A general note: The colour change of resazurin is a common sign of viable cells or microbes.
Experiment [3] relates to Streptococcus sp. 'group A'. Put plainly: Streptococcus pyogenes SK(-)GAS viability under kanamycin – luminescence, BacTiterGlo, confirmation, counter-screen for streptokinase expression inhibitor project, dose response (AID 1900). It counts as functional, organism-based.
A further experiment has as its target T2, Streptokinase A (Streptococcus pyogenes serotype M1, UniProt P10520).
T2 sequence (P10520 whole entry): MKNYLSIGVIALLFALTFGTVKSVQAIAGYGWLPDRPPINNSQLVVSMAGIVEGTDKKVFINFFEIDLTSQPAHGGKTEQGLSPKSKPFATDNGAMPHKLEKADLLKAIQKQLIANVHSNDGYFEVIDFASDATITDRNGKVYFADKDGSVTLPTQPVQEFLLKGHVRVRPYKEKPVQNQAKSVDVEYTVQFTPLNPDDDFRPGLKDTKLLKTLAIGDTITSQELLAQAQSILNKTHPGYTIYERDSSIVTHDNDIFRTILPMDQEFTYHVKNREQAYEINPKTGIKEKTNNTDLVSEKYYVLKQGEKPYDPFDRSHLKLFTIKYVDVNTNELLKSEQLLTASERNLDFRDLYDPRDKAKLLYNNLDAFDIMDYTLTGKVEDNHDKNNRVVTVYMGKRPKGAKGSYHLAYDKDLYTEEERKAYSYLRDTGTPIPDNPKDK
Put plainly: viability-normalized secreted streptokinase activity reduction – plasminogen activation absorbance, OD405, dose response (AID 1914).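 Further: secreted streptokinase activity via plasminogen activation per viability signal from cell pellet.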 Type of experiment: functional, Streptococcus pyogenes M1 GAS.

The nature of experiment [4]: fluconazole-exposed Candida albicans growth modulators – fluorescence, retest, confirmation (AID 2467). Type of experiment: functional, cell-based.
The next experiment relates to Streptococcus. Put plainly: GAS UMAA2166 growth inhibition – luminescence, BacTiterGlo, counter-screen for streptokinase expression inhibitor project, dose response (AID 1915).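 Further: potency for reduction of bacterial viability or growth.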 It counts as functional, organism-based.
For another experiment, the target named is Large T antigen (Simian virus 40, UniProt P03070). It counts as functional, Betapolyomavirus macacae.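 Further: Confirmatory-stage PubChem screen for compounds that inhibit SV40 T antigen.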
Large T antigen, sequence (P03070 whole entry): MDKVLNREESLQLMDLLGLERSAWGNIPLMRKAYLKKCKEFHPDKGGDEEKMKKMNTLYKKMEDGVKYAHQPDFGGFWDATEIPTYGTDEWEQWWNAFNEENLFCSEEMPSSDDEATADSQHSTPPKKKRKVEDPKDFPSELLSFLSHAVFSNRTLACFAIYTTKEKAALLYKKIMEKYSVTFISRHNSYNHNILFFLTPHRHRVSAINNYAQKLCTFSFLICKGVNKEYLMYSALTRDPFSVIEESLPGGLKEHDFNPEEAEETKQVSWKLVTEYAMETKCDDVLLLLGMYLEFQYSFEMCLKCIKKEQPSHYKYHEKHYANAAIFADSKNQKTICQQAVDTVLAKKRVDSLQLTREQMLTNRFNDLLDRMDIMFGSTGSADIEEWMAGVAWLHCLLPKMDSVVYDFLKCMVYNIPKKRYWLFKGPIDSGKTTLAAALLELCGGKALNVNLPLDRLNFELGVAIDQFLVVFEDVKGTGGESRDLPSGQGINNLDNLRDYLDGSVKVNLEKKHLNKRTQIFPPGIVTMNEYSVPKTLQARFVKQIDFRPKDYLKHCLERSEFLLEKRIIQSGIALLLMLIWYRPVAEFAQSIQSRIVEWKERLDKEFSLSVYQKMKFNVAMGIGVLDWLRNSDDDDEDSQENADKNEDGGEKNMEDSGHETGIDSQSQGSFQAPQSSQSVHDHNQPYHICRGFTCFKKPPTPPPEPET
Experiment [5] is described as follows: P. falciparum Dd2 growth inhibitors, dose response, SYBR Green, cherry-picked samples (AID 1159567). It counts as functional, cell-based.
A short description of experiment [6]: Luminescence Cell-Based Dose Confirmation HTS to Identify Activators of 5'UTR Stem-Loop Driven Alpha-Synuclein mRNA Translation in H4 Neuroglioblastoma Cells. [Related pubchem assays: 1829 (Project Summary), 1814 (Primary HTS)]. Type of experiment: functional.
The nature of experiment [7]: Luminescence Cell-Based Dose Response HTS to Identify Activators of Luciferase Translation or Activity in H4 […] Cells. [Related pubchem assays: 1829 (Project Summary), 1814 (Primary HTS)]. Type of experiment: functional.
A further experiment concerns H4. Put plainly: Luminescence Cell-Based Dose Response HTS to Identify Activators of 5'UTR Stem-Loop Driven Prion Protein mRNA Translation in H4 Neuroglioblastoma Cells. [Related pubchem assays: 1829 (Project Summary), 1814 (Primary HTS)]. Type of experiment: functional. To be noted: Homo sapiens.
A short description of experiment [8]: viability of HCT116 lacking mutant beta-catenin – cell-based, human colon tumor, dose response (AID 1045).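 Further: HCT116 colon tumor cells with beta catenin knocked out; cells exposed to compound for 60 hours.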 Type of experiment: functional.
Experiment [9] in a line: Trypanosoma cruzi growth suppression in host cells – NIH3T3 host cells, beta-gal luminescence, confirmation (AID 2044).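 Further: intracellular parasites grown in NIH/3T3 mouse fibroblasts as host cells; luminescent beta-galactosidase reporter signal from transgenic T. cruzi replicating inside host cells; inhibitors lower the luminescence signal.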 It counts as functional, cell-based.
A short description of experiment [10]: NIH3T3 cell viability loss – ATP luminescence, mouse fibroblasts, counter-screen, dose response (AID 2010).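 Further: cells exposed to compound for about 90 hours before reading.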 It counts as functional, cell-based. A general note: Counterscreens check selectivity or assay interference.
A short description of a further experiment: cells. Type of experiment: functional.
Experiment [11] concerns the target T3, Fatty acid synthase (Homo sapiens, UniProt P49327). The experiment can be described thus: inhibition of human FAS-TE enzyme activity – biochemical, endpoint fluorescence intensity, uHTS hits, dose response (AID 624327).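 Further: fluorescence from hydrolysis of an O-methyl fluorescein acyl ester substrate by the enzyme.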 Type of experiment: functional.
Experiment [12] addresses T3, Fatty acid synthase. Put plainly: inhibition of human FAS-TE enzyme activity – biochemical, kinetic fluorescence intensity, dose response (AID 624326).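 Further: rate of fluorescence rise from hydrolysis of a fluorogenic O-methyl fluorescein ester substrate.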 Type of experiment: functional.
Experiment [13] concerns the target FAD-linked sulfhydryl oxidase ALR (Homo sapiens, UniProt P55789). The experiment can be described thus: ALR-catalysed DTT oxidation blockers – biochemical, H2O2 detection, luminescence, cherry-pick, dose response (AID 493248).
Experiment [14] can be described thus: Luminescence Cell-Based Dose Retest to Confirm Inhibitors of Cancer Stem Cells. [Related pubchem assays (depositor defined):AID2717, AID2721]. It counts as functional. Particulars: Homo sapiens.
For experiment [15], the target named is T1, Heat shock factor protein 1. Put plainly: decrease of HSF1-responsive luciferase luminescence – cell-based, NIH3T3, dose retest, confirmation (AID 2382).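 Further: NIH3T3 fibroblasts with HSF1-driven luciferase reporter stressed by proteasome inhibitor MG132; luminescence from HSF1-driven luciferase expression after 8 hours of MG132 stress.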 Type of experiment: functional.

Activity calls are given as the source filed them. For most assays here, no stated cut-off is given here; in the data, actives have a measured EC50 and inactives only a lower limit.

T3 sequence (P49327 whole entry): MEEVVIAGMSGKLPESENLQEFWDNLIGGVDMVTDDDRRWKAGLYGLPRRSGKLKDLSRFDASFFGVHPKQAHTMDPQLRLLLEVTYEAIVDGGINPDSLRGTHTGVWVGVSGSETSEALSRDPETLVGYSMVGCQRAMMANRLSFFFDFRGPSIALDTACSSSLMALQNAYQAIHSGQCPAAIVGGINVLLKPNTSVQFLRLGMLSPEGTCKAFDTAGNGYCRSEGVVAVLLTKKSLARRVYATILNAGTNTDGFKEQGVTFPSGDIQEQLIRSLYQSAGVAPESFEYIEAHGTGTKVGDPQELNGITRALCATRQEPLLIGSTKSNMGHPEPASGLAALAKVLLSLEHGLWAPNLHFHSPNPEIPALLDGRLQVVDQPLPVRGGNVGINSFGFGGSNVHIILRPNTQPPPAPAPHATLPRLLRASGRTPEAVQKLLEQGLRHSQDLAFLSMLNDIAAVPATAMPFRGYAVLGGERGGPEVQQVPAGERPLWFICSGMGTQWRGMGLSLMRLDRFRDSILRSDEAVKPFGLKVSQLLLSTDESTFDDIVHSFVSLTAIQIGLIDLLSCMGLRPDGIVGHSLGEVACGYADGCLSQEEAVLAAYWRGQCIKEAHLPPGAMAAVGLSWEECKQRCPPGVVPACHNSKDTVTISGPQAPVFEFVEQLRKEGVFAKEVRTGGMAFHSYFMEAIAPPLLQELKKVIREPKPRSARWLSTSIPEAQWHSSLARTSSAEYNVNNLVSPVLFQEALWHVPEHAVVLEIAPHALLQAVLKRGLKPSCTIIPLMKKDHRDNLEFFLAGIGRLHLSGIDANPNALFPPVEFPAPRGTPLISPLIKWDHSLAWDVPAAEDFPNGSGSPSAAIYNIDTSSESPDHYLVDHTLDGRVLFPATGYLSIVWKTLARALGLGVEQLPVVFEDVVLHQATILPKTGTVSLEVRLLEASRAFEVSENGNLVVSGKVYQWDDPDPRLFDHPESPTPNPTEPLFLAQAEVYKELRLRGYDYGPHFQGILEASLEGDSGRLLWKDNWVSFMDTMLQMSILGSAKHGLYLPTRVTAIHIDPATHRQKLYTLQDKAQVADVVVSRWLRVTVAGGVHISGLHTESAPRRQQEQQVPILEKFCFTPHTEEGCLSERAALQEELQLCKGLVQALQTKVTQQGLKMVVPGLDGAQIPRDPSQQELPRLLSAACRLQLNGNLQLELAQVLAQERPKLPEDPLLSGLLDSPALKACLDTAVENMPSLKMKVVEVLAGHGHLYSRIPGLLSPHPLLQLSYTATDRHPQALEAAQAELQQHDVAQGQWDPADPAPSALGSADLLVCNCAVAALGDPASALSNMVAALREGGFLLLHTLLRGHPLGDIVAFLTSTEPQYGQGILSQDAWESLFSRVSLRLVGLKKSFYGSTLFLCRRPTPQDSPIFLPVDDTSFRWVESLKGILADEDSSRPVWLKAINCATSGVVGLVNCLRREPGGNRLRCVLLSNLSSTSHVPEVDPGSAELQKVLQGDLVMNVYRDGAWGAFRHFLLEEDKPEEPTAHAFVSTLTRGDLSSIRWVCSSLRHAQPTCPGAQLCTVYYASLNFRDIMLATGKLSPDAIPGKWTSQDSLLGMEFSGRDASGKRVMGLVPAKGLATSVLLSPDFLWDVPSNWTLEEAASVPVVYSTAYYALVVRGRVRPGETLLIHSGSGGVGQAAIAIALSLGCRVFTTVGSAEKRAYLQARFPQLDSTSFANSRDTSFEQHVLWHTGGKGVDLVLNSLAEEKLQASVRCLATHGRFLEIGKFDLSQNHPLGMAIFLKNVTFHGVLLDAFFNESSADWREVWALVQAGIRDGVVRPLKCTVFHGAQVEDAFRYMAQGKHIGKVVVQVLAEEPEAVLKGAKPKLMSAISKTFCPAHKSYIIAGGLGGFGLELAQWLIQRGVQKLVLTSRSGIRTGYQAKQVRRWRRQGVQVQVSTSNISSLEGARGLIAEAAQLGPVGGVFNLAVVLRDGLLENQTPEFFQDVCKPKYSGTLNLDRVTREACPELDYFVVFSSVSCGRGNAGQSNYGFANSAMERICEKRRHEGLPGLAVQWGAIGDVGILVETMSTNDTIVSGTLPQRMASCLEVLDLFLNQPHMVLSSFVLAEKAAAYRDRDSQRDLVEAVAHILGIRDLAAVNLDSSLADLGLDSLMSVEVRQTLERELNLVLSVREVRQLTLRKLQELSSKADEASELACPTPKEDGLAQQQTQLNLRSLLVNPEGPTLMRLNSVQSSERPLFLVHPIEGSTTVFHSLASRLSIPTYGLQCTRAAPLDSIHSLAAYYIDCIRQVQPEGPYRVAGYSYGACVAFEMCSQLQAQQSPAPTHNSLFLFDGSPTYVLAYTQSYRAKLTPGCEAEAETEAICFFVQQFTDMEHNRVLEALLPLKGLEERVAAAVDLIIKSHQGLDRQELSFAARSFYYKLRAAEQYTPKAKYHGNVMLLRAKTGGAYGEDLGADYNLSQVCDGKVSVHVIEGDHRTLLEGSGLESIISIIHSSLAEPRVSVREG
FAD-linked sulfhydryl oxidase ALR, sequence (P55789 whole entry): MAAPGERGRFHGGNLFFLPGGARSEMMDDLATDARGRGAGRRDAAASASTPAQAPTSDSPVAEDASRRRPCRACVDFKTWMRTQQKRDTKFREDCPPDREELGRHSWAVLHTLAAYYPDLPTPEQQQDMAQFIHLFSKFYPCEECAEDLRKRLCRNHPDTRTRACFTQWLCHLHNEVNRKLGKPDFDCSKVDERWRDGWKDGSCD

The EC50 is the concentration that produces a half-maximal response. Regarding `O=C1C2CCCCN2C(=O)N1CCCN1CCN(c2ccc(F)cc2)CC1` (stereo not drawn), the EC50 in [1] was > 260 µM (inactive). With `Cc1ccc(C(=O)CC(=O)c2ccccc2C)c(O)c1`, the EC50 is > 150 µM (inactive) in experiment [2]; 6.61 µM (active) in experiment [3]; > 150 µM (not active) at Streptokinase A; > 38 µM (not active) in experiment [4]; 9.83 µM (active) in the experiment on Streptococcus.

The IC50 is the concentration needed to halve the response being measured. Consider `CN(C)c1ccc(Nc2cc(Cl)ncn2)cc1`, for which, on Large T antigen, the IC50 is 7.46 µM (active). As to `CCCN1CCN(C(=O)c2ccc(Sc3ccc(C)cc3)c(NC(C)=O)c2)CC1`, the EC50 in experiment [1] is > 260 µM (inactive).

As to `O=C(CN1c2ccccc2Sc2ccccc21)N/N=C/c1ccc(Cl)cc1`, the EC50 in experiment [1] was > 260 µM (inactive). As a reminder, the AC50 is the midpoint of the concentration-response curve, whichever way the signal moves. Take `CCC(=O)N1CC2(C1)CN(Cc1cc(F)ccc1F)[C@@H](CO)c1[nH]c3cc(OC)ccc3c12`: the half-maximal activity concentration (AC50) in experiment [5] is 7.9 µM (active). In the case of `CCN(CC)c1ccc(C(=O)OCC(=O)c2ccco2)cc1`, the concentration for a half-maximal effect (EC50) in experiment [6] was 14.1 µM (active); in experiment [7], 94 µM (active); with H4, 57.4 µM (active). On to `CC(/C=N/Nc1n[nH]c2c3ccccc3nc-2n1)=C\c1ccco1`, for which the figures for the EC50 (in [6]; in experiment [7]; with H4) were 11 µM (active), 17.6 µM (active) and 15.5 µM (active), respectively. With `O=S(=O)(Cc1ccccc1)N1CCc2ccccc21`, the EC50 in experiment [2] is > 160 µM (inactive); in experiment [4], 1.56 µM (active). Regarding `O=C1c2cccc3cccc(c23)C(=O)N1OS(=O)(=O)c1ccccc1`, in experiment [1], the EC50 was > 260 µM (inactive). Same read-out and setting: the value for `CCCc1cc(O)nc(SCC(=O)Nc2ccc(C)cc2)n1` was > 260 µM (inactive). In the case of `COc1cccc(-c2nnc(SCc3cccnc3)o2)c1`, the EC50 is 43.2 µM (active) in experiment [6], 33.1 µM (active) in experiment [7] and 12.2 µM (active) in the experiment on H4. In the case of `COc1cc(/C=N/NC(=O)CSc2ccccn2)ccc1O`, the IC50 on Large T antigen was 9.69 µM (active).

As to `N#Cc1ccc(-c2ccc3c(c2)[C@H]2[C@H](CCN2C(=O)C2CCCC2)[C@H](CO)N3)cc1`, the AC50 in experiment [5] was 4.55 µM (active). For `CCOc1cc(/C=N/O)ccc1OS(=O)(=O)c1ccc(C)cc1`, the EC50 in [8] was 312 µM (active). Turning to `Cn1ncc(Cl)c1C(=O)NNC(=O)Nc1cccc2ccccc12`, the EC50 in experiment [2] is > 160 µM (inactive); in experiment [4] it was > 38 µM (not active). `Oc1ccc(-c2csc(-c3c[nH]c4ccccc34)n2)c(O)c1`: the EC50 is 0.115 µM (active) in experiment [6], 4.35 µM (inconclusive) in experiment [7] and 10.2 µM (active) with H4. In the case of `O=C1CCCC/C1=N\Nc1ccc(OCc2ccccc2)cc1`, the 50% effective concentration (EC50) in experiment [2] was > 160 µM (inconclusive); in experiment [4], > 38 µM (not active). Turning to `C/C=C/c1ccc2c(c1)[C@H]1[C@H](CCN1C(=O)C1CCCC1)[C@@H](CO)N2`, in experiment [5], the concentration at half-maximal activity (AC50) is 4.97 µM (active).

As to `C/C=C/c1ccc([C@H]2[C@@H](CO)N(CC3CCCC3)C23CN(C(=O)CC2CC2)C3)cc1`, the concentration at half-maximal activity (AC50) in [5] is 4.55 µM (active). As to `COc1ccc2c(c1)sc(=N)n2C`, the EC50 was 0.122 µM (active) in experiment [9] and > 60 µM (inconclusive) in [10]. Further, the IC50 in the experiment “cells” was 30 µM (active). On to `COc1ccc([N+](=O)[O-])cc1C(=O)Nc1ccc(Cc2ccncc2)cc1`, for which the IC50 at Fatty acid synthase [11] was 10.9 µM (active); at Fatty acid synthase [12], 11.5 µM (active).

For `C[n+]1c(-c2ccccc2)cc(-c2ccc(Cl)cc2)cc1-c1ccccc1.[O-][Cl+3]([O-])([O-])[O-]`, the results for the EC50 in experiment [2] and in experiment [4] were > 160 µM (inconclusive) and 0.756 µM (active), respectively. In the case of `O=C(NCCc1c[nH]c2ccccc12)c1ccc(Cl)cc1`, the EC50 in experiment [6] is 21.9 µM (active); in experiment [7], > 120 µM (not active); in the experiment on H4, > 120 µM (not active). As for `CCOC(=O)CNc1c(-c2ccc(O)cc2)nc2ccc(Cl)cn12`, the half-maximal inhibitory concentration (IC50) on Large T antigen is 15.9 µM (active). In the case of `CC(C)(C)c1ccc(CSc2ccc(S(=O)(=O)N3CCOCC3)cn2)cc1`, the IC50 on Fatty acid synthase [11] was 1.03 µM (active); on Fatty acid synthase [12] it was 0.683 µM (active). `Cc1csc(Nc2ccccc2)[n+]1-c1ccccc1`: the EC50 in experiment [6] is > 120 µM (not active); in experiment [7], > 30 µM (not active); in the experiment on H4 it was 6.74 µM (active). For the same compound, the half-maximal activity concentration (AC50) in experiment [13] was 1.14 µM (active). With `Cc1ccc(NC(=O)CCS(=O)(=O)c2ccc3c(c2)NC(=O)C(C)S3)nc1` (stereo not drawn), the EC50 in [1] is > 260 µM (inactive).

For the compound `CNc1nnc(Sc2ncccc2[N+](=O)[O-])s1`, the IC50 in “cells” is 7.5 µM (active). As to `O=C(c1ccccc1)c1c[nH]c(C(=O)NNc2ccccc2)c1`, the EC50 in [2] is 28.3 µM (active); in experiment [4], > 38 µM (not active); in experiment [9] it was 1.71 µM (active); in [10] it was 7.46 µM (active). In addition, the AC50 in experiment [14] is 1.09 µM (active).

Turning to `CC1CC(C)CN(C(=O)COC(=O)c2cc([N+](=O)[O-])ccc2N2CCOCC2)C1` (stereo not drawn), the IC50 at Fatty acid synthase [11] was 1.3 µM (active); on Fatty acid synthase [12], 1.22 µM (active). Take `O=C(CCCN1C(=O)c2cccc3cccc(c23)C1=O)Nc1ccon1`: the EC50 in [1] is > 260 µM (inactive).

On to `CSCCC(NC(=O)c1ccc(Cl)c([N+](=O)[O-])c1)C(=O)N1CCN(C/C=C/c2ccccc2)CC1` (stereo not drawn), for which the results for the IC50 at Fatty acid synthase [11] and on Fatty acid synthase [12] were 8.52 µM (active) and 6.62 µM (active), respectively. Regarding `O=C(CCN1CCCCCC1)c1ccccc1`, the AC50 in [13] was 5.85 µM (active). Further, the IC50 in “cells” is 41 µM (active).

For the compound `O=C(Cc1ccc(O)cc1)NC1CCCCCC1`, the EC50 in experiment [6] was 47.4 µM (active); in experiment [7], 52 µM (active); in the experiment with H4 it was 16.8 µM (active); in [15], > 195 µM (not active). Turning to `O=C(c1ccco1)c1nnn(Cc2ccccc2)c1-c1ccccc1`, in [14], the AC50 was 3.72 µM (active). In addition, the EC50 in experiment [1] was > 260 µM (inactive). For `COc1ccc2c3c([nH]c2c1)[C@H](CO)N(Cc1ccc(F)cc1)CC31CCN(Cc2ccccn2)CC1`, the AC50 in [5] was 2.95 µM (active).
